From ChEMBL document CHEMBL3885861, “Open TG-GATES”

Species: Rattus norvegicus
Experiment: Open TG-GATES - Regimen: Daily Repeat
Assay type: toxicity, organism-based, Sprague-Dawley
Design: regimen Daily Repeat, gender Male, age 6 weeks
Conditions: in vivo, sc, 0 mg/kg, route subcutaneous injection, dose 0 ug/Kg, dose level Control; for APTT / Bas / Eos / Fbg / Hb / Ht / Lym / MCH / MCHC / MCV / Mono / Neu / PT / Plat / RBC / Ret / WBC: tissue Blood; for KIDNEY_L / KIDNEY_R / KIDNEY_TOTAL: tissue Kidney; for LIVER: tissue Liver; for A/G / ALP / ALT / AST / BUN / CRE / Ca / Cl / DBIL / GLC / IP / K / LDH / Na / PL / RALB / TBIL / TC / TG / TP / gamma-GTP: tissue Plasma

SMILES: CC(=O)O.N=C(N)NCCC[C@@H](NC(=O)[C@@H]1CCCN1C(=O)[C@@H]1CSSCCC(=O)N[C@@H](Cc2ccc(O)cc2)C(=O)N[C@@H](Cc2ccccc2)C(=O)N[C@@H](CCC(N)=O)C(=O)N[C@@H](CC(N)=O)C(=O)N1)C(=O)NCC(N)=O [DESMOPRESSIN ACETATE]
- TERMINAL_BW (72 h, time 3 day): 251.2 g
- APTT (72 h, time 3 day): 16.5 s
- Bas (72 h, time 3 day): 0%
- Eos (72 h, time 3 day): 1%
- Fbg (72 h, time 3 day): 269.4 mg/dL
- Hb (72 h, time 3 day): 13.2 g/dL
- Ht (72 h, time 3 day): 40.3%
- Lym (72 h, time 3 day): 66.8%
- MCH (72 h, time 3 day): 21.5 pg
- MCHC (72 h, time 3 day): 32.7%
- MCV (72 h, time 3 day): 65.7 fL
- Mono (72 h, time 3 day): 9.6%
- Neu (72 h, time 3 day): 22.4%
- PT (72 h, time 3 day): 11.9 s
- Plat (72 h, time 3 day): 133.8 x10_4/uL
- RBC (72 h, time 3 day): 613.4 x10_4/ul
- Ret (72 h, time 3 day): 6.9%
- WBC (72 h, time 3 day): 105.2 x10_2/uL
- KIDNEY_L (72 h, time 3 day): 1 g
- KIDNEY_R (72 h, time 3 day): 1.1 g
- KIDNEY_TOTAL (72 h, time 3 day): 2.1 g
- LIVER (72 h, time 3 day): 11.8 g
- A/G (72 h, time 3 day): 2
- ALP (72 h, time 3 day): 1258.4 IU/L
- ALT (72 h, time 3 day): 32.6 IU/L
- AST (72 h, time 3 day): 68.8 IU/L
- BUN (72 h, time 3 day): 15.6 mg/dL
- CRE (72 h, time 3 day): 0.4 mg/dL
- Ca (72 h, time 3 day): 11.2 mg/dL
- Cl (72 h, time 3 day): 104.6 meq/L
- DBIL (72 h, time 3 day): 0.01 mg/dL
- GLC (72 h, time 3 day): 185.6 mg/dL
- IP (72 h, time 3 day): 7.3 mg/dL
- K (72 h, time 3 day): 5.4 meq/L
- LDH (72 h, time 3 day): 203 IU/L
- Na (72 h, time 3 day): 136 meq/L
- PL (72 h, time 3 day): 152.2 mg/dL
- RALB (72 h, time 3 day): 3.7 g/dL
- TBIL (72 h, time 3 day): 0.034 mg/dL
- TC (72 h, time 3 day): 79.8 mg/dL
- TG (72 h, time 3 day): 119.6 mg/dL
- TP (72 h, time 3 day): 5.6 g/dL
- gamma-GTP (72 h, time 3 day): 1 IU/L
- TERMINAL_BW ([…], time 7 day): 275.2 g
- TERMINAL_BW ([…], time 14 day): 338.4 g
- TERMINAL_BW ([…], time 28 day): 413.7 g
- APTT ([…], time 7 day): 16.5 s
- Bas ([…], time 7 day): 0%
- Eos ([…], time 7 day): 1%
- Fbg ([…], time 7 day): 262.8 mg/dL
- Hb ([…], time 7 day): 13.6 g/dL
- Ht ([…], time 7 day): 41.6%
- Lym ([…], time 7 day): 68.2%
- MCH ([…], time 7 day): 21 pg
- MCHC ([…], time 7 day): 32.8%
- MCV ([…], time 7 day): 64.2 fL
- Mono ([…], time 7 day): 7.4%
- Neu ([…], time 7 day): 23.4%
- PT ([…], time 7 day): 12 s
- Plat ([…], time 7 day): 124.2 x10_4/uL
- RBC ([…], time 7 day): 648.6 x10_4/ul
- Ret ([…], time 7 day): 6.6%
- WBC ([…], time 7 day): 103.6 x10_2/uL
- APTT ([…], time 14 day): 15.5 s
- Bas ([…], time 14 day): 0%
- Eos ([…], time 14 day): 1%
- Fbg ([…], time 14 day): 263.4 mg/dL
- Hb ([…], time 14 day): 14.2 g/dL
- Ht ([…], time 14 day): 43.5%
- Lym ([…], time 14 day): 74.8%
- MCH ([…], time 14 day): 20.7 pg
- MCHC ([…], time 14 day): 32.6%
- MCV ([…], time 14 day): 63.2 fL
- Mono ([…], time 14 day): 7.8%
- Neu ([…], time 14 day): 16.8%
- PT ([…], time 14 day): 11.7 s
- Plat ([…], time 14 day): 130.6 x10_4/uL
- RBC ([…], time 14 day): 687 x10_4/ul
- Ret ([…], time 14 day): 6%
- WBC ([…], time 14 day): 122.6 x10_2/uL
- APTT ([…], time 28 day): 17.8 s
- Bas ([…], time 28 day): 0%
- Eos ([…], time 28 day): 1.6%
- Fbg ([…], time 28 day): 249.4 mg/dL
- Hb ([…], time 28 day): 15.2 g/dL
- Ht ([…], time 28 day): 46.3%
- Lym ([…], time 28 day): 77.4%
- MCH ([…], time 28 day): 19 pg
- MCHC ([…], time 28 day): 32.8%
- MCV ([…], time 28 day): 58.1 fL
- Mono ([…], time 28 day): 6.6%
- Neu ([…], time 28 day): 14.8%
- PT ([…], time 28 day): 12.3 s
- Plat ([…], time 28 day): 113 x10_4/uL
- RBC ([…], time 28 day): 797.2 x10_4/ul
- Ret ([…], time 28 day): 3.1%
- WBC ([…], time 28 day): 130.4 x10_2/uL
- KIDNEY_L ([…], time 7 day): 1.1 g
- KIDNEY_R ([…], time 7 day): 1.1 g
- KIDNEY_TOTAL ([…], time 7 day): 2.2 g
- KIDNEY_L ([…], time 14 day): 1.3 g
- KIDNEY_R ([…], time 14 day): 1.3 g
- KIDNEY_TOTAL ([…], time 14 day): 2.6 g
- KIDNEY_L ([…], time 28 day): 1.5 g
- KIDNEY_R ([…], time 28 day): 1.5 g
- KIDNEY_TOTAL ([…], time 28 day): 2.9 g
- LIVER ([…], time 7 day): 12.4 g
- LIVER ([…], time 14 day): 14.3 g
- LIVER ([…], time 28 day): 15.3 g
- A/G ([…], time 7 day): 1.9
- ALP ([…], time 7 day): 1187.4 IU/L
- ALT ([…], time 7 day): 30.2 IU/L
- AST ([…], time 7 day): 68.8 IU/L
- BUN ([…], time 7 day): 16.2 mg/dL
- CRE ([…], time 7 day): 0.4 mg/dL
- Ca ([…], time 7 day): 13.7 mg/dL
- Cl ([…], time 7 day): 99.2 meq/L
- DBIL ([…], time 7 day): 0.014 mg/dL
- GLC ([…], time 7 day): 197.2 mg/dL
- IP ([…], time 7 day): 7.4 mg/dL
- K ([…], time 7 day): 5.1 meq/L
- LDH ([…], time 7 day): 157.8 IU/L
- Na ([…], time 7 day): 130.2 meq/L
- PL ([…], time 7 day): 165 mg/dL
- RALB ([…], time 7 day): 3.6 g/dL
- TBIL ([…], time 7 day): 0.048 mg/dL
- TC ([…], time 7 day): 86.8 mg/dL
- TG ([…], time 7 day): 171 mg/dL
- TP ([…], time 7 day): 5.5 g/dL
- gamma-GTP ([…], time 7 day): 1 IU/L
- A/G ([…], time 14 day): 1.7
- ALP ([…], time 14 day): 1208.4 IU/L
- ALT ([…], time 14 day): 31 IU/L
- AST ([…], time 14 day): 67.8 IU/L
- BUN ([…], time 14 day): 16.2 mg/dL
- CRE ([…], time 14 day): 0.4 mg/dL
- Ca ([…], time 14 day): 11.1 mg/dL
- Cl ([…], time 14 day): 106.2 meq/L
- DBIL ([…], time 14 day): 0.01 mg/dL
- GLC ([…], time 14 day): 194.2 mg/dL
- IP ([…], time 14 day): 6.9 mg/dL
- K ([…], time 14 day): 5.2 meq/L
- LDH ([…], time 14 day): 149 IU/L
- Na ([…], time 14 day): 138.6 meq/L
- PL ([…], time 14 day): 166 mg/dL
- RALB ([…], time 14 day): 3.8 g/dL
- TBIL ([…], time 14 day): 0.026 mg/dL
- TC ([…], time 14 day): 91.4 mg/dL
- TG ([…], time 14 day): 136.8 mg/dL
- TP ([…], time 14 day): 6 g/dL
- gamma-GTP ([…], time 14 day): 0.8 IU/L
- A/G ([…], time 28 day): 1.5
- ALP ([…], time 28 day): 865.8 IU/L
- ALT ([…], time 28 day): 27.8 IU/L
- AST ([…], time 28 day): 67.6 IU/L
- BUN ([…], time 28 day): 14.6 mg/dL
- CRE ([…], time 28 day): 0.4 mg/dL
- Ca ([…], time 28 day): 8.9 mg/dL
- Cl ([…], time 28 day): 106 meq/L
- DBIL ([…], time 28 day): 0.01 mg/dL
- GLC ([…], time 28 day): 184.8 mg/dL
- IP ([…], time 28 day): 6.2 mg/dL
- K ([…], time 28 day): 4.9 meq/L
- LDH ([…], time 28 day): 154.2 IU/L
- Na ([…], time 28 day): 139.2 meq/L
- PL ([…], time 28 day): 126.4 mg/dL
- RALB ([…], time 28 day): 3.6 g/dL
- TBIL ([…], time 28 day): 0.038 mg/dL
- TC ([…], time 28 day): 63.6 mg/dL
- TG ([…], time 28 day): 120.6 mg/dL
- TP ([…], time 28 day): 6 g/dL
- gamma-GTP ([…], time 28 day): 0.6 IU/L
